Laboratory results from patent publication US11059795B2, “Androgen receptor modulators and methods for their use” (ESSA Pharma, Inc., priority 2018, dated 2021).

Experiments:
androgen receptor (AR) = target: T1, androgen receptor (AR) (Homo sapiens, UniProt P10275, T878A); assay: Androgen-induced PSA (6.1 kb)-luciferase reporter assay in LNCaP cells; assay type: cell-based; conditions: LNCaP cells transfected with PSA (6.1 kb)-luciferase reporter, R1881 1 nM, 24 h; read-out: PSA-Luc IC50 Range
T1 construct: LNCaP cells were transiently transfected with the PSA (6.1 kb)-luciferase reporter for 24 h; endogenous in cells; host or cells: LNCaP
T1 sequence (P10275 1-920 T878A): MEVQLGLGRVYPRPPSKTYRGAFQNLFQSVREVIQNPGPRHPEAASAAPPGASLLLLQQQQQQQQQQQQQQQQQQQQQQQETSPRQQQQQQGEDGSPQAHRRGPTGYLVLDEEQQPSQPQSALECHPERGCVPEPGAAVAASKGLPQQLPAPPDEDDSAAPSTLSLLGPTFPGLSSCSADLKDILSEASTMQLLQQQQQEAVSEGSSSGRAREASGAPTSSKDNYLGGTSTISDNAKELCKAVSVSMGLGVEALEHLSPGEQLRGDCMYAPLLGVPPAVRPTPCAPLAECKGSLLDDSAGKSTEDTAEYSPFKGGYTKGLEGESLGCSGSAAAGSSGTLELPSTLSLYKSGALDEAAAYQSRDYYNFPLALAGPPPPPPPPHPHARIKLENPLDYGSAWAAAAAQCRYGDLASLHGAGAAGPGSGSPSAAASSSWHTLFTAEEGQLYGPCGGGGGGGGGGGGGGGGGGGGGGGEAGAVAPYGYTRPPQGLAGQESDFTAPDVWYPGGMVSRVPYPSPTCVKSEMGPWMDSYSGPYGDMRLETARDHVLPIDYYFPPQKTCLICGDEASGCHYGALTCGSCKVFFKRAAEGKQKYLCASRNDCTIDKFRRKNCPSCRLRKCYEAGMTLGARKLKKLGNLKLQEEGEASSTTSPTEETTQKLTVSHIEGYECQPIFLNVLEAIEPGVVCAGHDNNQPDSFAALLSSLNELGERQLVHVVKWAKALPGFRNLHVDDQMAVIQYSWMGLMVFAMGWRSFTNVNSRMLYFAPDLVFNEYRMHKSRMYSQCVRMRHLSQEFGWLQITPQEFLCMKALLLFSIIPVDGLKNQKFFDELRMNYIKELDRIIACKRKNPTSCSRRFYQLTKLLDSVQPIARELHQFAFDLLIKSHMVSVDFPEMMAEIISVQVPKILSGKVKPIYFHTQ
Experimental: The PSA (6.1 kb)-luciferase reporter contains functional AREs (androgen response elements) to which AR binds in response to androgen to induce luciferase activity.
Cells were lysed using Passive Lysis Buffer (Promega) and then collected into V-bottom 96-well tissue culture plates. Lysates were centrifuged at 4° C. for 5 minutes at 3000 rpm. To measure luminescence of LNCaP cell lysates the Firefly Luciferase Assay System (Promega) was employed, according to manufacturer's protocol. Relative luminescence units (RLU) in cell lysates were detected for 10 seconds using Promega GloMax-Multi Detection Luminometer (Promega). Values were normalized to protein content. GraphPad Prism graphing software was used to calculate IC50 values.
Comparisons between treatment and control groups were compared using Two-Way ANOVA with post-hoc Dunnett's and Tukey's tests. Differences were considered statistically significant at P values less than 0.05.

[1] = Microsomal stability assay, mouse liver microsomes; assay type: in vitro ADME; conditions: mouse, liver microsomes, pH 7.4, mouse liver microsomes, 1 μM compound, 0.5 mg/mL protein, 37° C.; read-out: MLM +30/− NADPH: Clint (μL/min/mg protein)
Experimental: (§1) Microsomal stability assay is a widely used in vitro model to characterize the metabolic conversion by phase I enzymes, such as cytochrome P450 (CYP) enzymes. Since metabolism is known to be highly variable in different species, microsomal stability assay is commonly run in multiple species. Metabolic stability of testing compound can be evaluated using human, rat, mouse, or other animal liver or intestine microsomes to predict intrinsic clearance.
(§2) The assay was carried out in 96-well microtiter plates at 37° C. Reaction mixtures (25 μL) contained a final concentration of 1 μM test compound, 0.5 mg/mL liver microsomes protein, and 1 mM NADPH and/or 1 mM UDPGA (with alamethicin) in 100 mM potassium phosphate, pH 7.4 buffer with 3 mM MgCl2. The incubation was done with N=1, but duplicate incubation at each time point can be prepared if necessary. At each of the time points (for example, 0, 15, 30, and 60 minutes), 150 μL of quench solution (100% acetonitrile with 0.1% formic acid) with internal standard was transferred to each well. Besides the zero minute controls, mixtures containing the same components except the NADPH can also be prepared as the negative control. Verapamil was included as a positive control to verify assay performance. Plates were sealed, vortexed, and centrifuged at 4° C. for 15 minutes at 4000 rpm. The supernatant is transferred to fresh plates for LC/MS/MS analysis.
(§3) Summarized conditions: [Compound]=[…], [LM]=0.5 mg/mL, [NADPH]=1 mM and/or [UDPGA]=1 mM, Buffer=100 mM Potassium Phosphate, pH 7.4 with 3 mM MgCl2, Time=0, 15, 30, and 60 min, and Temperature=37° C.
(§4) All samples were analyzed on LC/MS/MS using an AB Sciex API 4000 instrument, coupled to a Shimadzu LC-20AD LC Pump system. Analytical samples were separated using a Waters Atlantis T3 dC18 reverse phase HPLC column (20 mm×2.1 mm) at a flow rate of 0.5 mL/min. The mobile phase consisted of 0.1% formic acid in water (solvent A) and 0.1% formic acid in 100% acetonitrile (solvent B).
(§5) The extent of metabolism is calculated as the disappearance of the test compound, compared to the 0-min time incubation. Initial rates are calculated for the compound concentration and used to determine half-life (t½) values and subsequently, the intrinsic clearance (Clint). Clint=(0.693)(1/t½ (min))(g of liver/kg of body weight)(mL incubation/mg of microsomal protein)(45 mg of microsomal protein/g of liver weight)

[2] = Hepatocyte stability assay, mouse hepatocytes; assay type: in vitro ADME; conditions: mouse, cryopreserved hepatocytes, 1 μM compound, 0.5 million cells/mL, 37° C., read-out: MH +/− NADPH: Clint (μL/min/million cells)
Excerpt: The […] of in vitro intrinsic clearance (Clint) for drug candidates in the early discovery stage is common practice in the pharmaceutical industry. The Clint values of drug candidates can help to confirm whether metabolism is the main clearance pathway when it is compared with the total body clearance in vivo. Hepatocytes are among the routinely used in vitro systems for measuring clearance. Hepatocytes have been reported to retain most of the phase I and phase II metabolic activities, and therefore, it is a useful tool to estimate the intrinsic clearance for potential drug candidates.
Metabolic stability of testing compound were be evaluated using human and mouse hepatocytes and can also be use rat, mouse, or other animal hepatocytes to predict intrinsic clearance. Cryopreserved hepatocytes were removed from the liquid nitrogen tank and thawed in a 37° C. water bath. As soon as the cells pulled away from the vial wall, they were decanted into 48 ml of warm HT medium. Cells were centrifuged for four minutes at 420 rpm (50 g). After removing the supernatant, pellet was re-suspended in warm DMEM medium. Cell density was counted by a hemacytometer.
The assay was carried out in 96-well microtiter plates. Compounds were incubated for 0, 60, 120, and 180 minutes at 37° C. with hepatocytes. Reaction mixtures (50 μL) contained a final concentration of 1 μM test compound, 0.5 million cells/mL hepatocytes in the DMEM medium. At each of the time points (for example, 0, 1, 2, and 3 hours), 200 μL of quench solution (100% acetonitrile with 0.1% formic acid) with internal standard was transferred to each well. Midazolam was included as a positive control to verify assay performance. Plates were sealed and centrifuged at 4° C. for 15 minutes at 4000 rpm. The supernatant is transferred to fresh plates for LC/MS/MS analysis.
Summarized conditions (customizable): [Compound]=[…], Positive control: midazolam and/or naloxone, [Hepatocyte]=0.5 million cells/Ml, time=0, 60, 120, and 180 min, t=37° C.
as §4
The extent of metabolism was calculated as the disappearance of the test compound, compared to the 0-min control reaction incubations. Initial rates were calculated for the compound concentration and used to determine t½ values and subsequently, the intrinsic clearance, Clint. Clint=(0.693)(1/t½(min))(mL incubation/million cells)

[3] = Microsomal stability assay, human liver microsomes; assay type: in vitro ADME; conditions: pH 7.4, 1 μM compound, 0.5 mg/mL protein, 37° C., read-out: HLM +/− NADPH: Clint (μL/min/mg protein)
Experimental: as §1, §2, §3, §4, §5

| Compound | IC50 (androgen receptor (AR)) | microsomal CLint at 1 μM [1] | hepatocyte CLint at 1 μM [2] | microsomal CLint at 1 μM [3] |
| --- | --- | --- | --- | --- |
| C[C@@H](Oc1ccc(C(C)(C)c2cc(Cl)c(OCCCl)c(C#N)c2)cc1)c1ccnc(NS(C)(=O)=O)n1 (single isomer, unassigned) [Compound A169] | < 500 nM | < 12 µL/min/mg | < 4 µL/min/1e6 cells | < 12 µL/min/mg |
| Cc1cc(C(C)(C)c2ccc(OC(C)c3scnc3S(C)(=O)=O)cc2)cc(C#N)c1OCCCl (stereo not drawn) [Compound A70] | < 500 nM | ≥ 48 µL/min/mg | 4 to 18 µL/min/1e6 cells | 12 to 48 µL/min/mg |
| CC(C)(c1ccc(OCc2[nH]cnc2S(C)(=O)=O)cc1)c1cc(Cl)c(OCCCl)c(Cl)c1 [Compound A71] | 500 to 2000 nM | < 12 µL/min/mg | 4 to 18 µL/min/1e6 cells | 12 to 48 µL/min/mg |
| CC(Oc1ccc(C(C)(C)c2cc(Cl)c(OCCCl)c(C#N)c2)cc1)c1ncoc1S(C)(=O)=O (stereo not drawn) [Compound A79] | < 500 nM | ≥ 48 µL/min/mg | ≥ 18 µL/min/1e6 cells | < 12 µL/min/mg |
| Cc1oc(S(C)(=O)=O)nc1COc1ccc(C(C)(C)c2cc(Cl)c(OCCCl)c(C#N)c2)cc1 [Compound A80] | < 500 nM | 12 to 48 µL/min/mg | ≥ 18 µL/min/1e6 cells | < 12 µL/min/mg |
| Cc1nc(S(C)(=O)=O)oc1COc1ccc(C(C)(C)c2cc(Cl)c(OCCCl)c(C#N)c2)cc1 [Compound A81] | < 500 nM | ≥ 48 µL/min/mg | ≥ 18 µL/min/1e6 cells | 12 to 48 µL/min/mg |
| CC(C)(C)C(=O)N(c1ccc(OCc2coc(NS(C)(=O)=O)n2)cc1)c1cc(Cl)c(OCCCl)c(C#N)c1 [Compound A127] | – | 12 to 48 µL/min/mg | 4 to 18 µL/min/1e6 cells | 12 to 48 µL/min/mg |
| CC(C)(c1ccc(OCc2csc(S(C)(=O)=O)n2)cc1)c1cc(Cl)c(OCCCl)c(C#N)c1 [Compound A144] | – | 12 to 48 µL/min/mg | ≥ 18 µL/min/1e6 cells | 12 to 48 µL/min/mg |
| CC(C)(c1ccc(C(=O)Nc2ccnc(N)n2)cc1)c1cc(Cl)c(OCCCl)c(Cl)c1 [Compound A146] | – | < 12 µL/min/mg | ≥ 18 µL/min/1e6 cells | 12 to 48 µL/min/mg |
| CC(C)(c1ccc(OCc2nc(C(N)=O)co2)cc1)c1cc(Cl)c(OCCCl)c(C#N)c1 [Compound A173] | > 2000 nM | < 12 µL/min/mg | – | < 12 µL/min/mg |
| CC(C)(c1ccc(OCc2nc(C#N)co2)cc1)c1cc(Cl)c(OCCCl)c(C#N)c1 [Compound A174] | 500 to 2000 nM | 12 to 48 µL/min/mg | – | < 12 µL/min/mg |
| CC(C)(c1ccc(C(=O)Nc2ccnc(NS(C)(=O)=O)n2)cc1)c1cc(Cl)c(OCCCl)c(Cl)c1 [Compound A189] | 500 to 2000 nM | < 12 µL/min/mg | – | < 12 µL/min/mg |
| CN1C(=O)N(Cc2ccc(C(C)(C)c3cc(Cl)c(OCCCCl)c(Cl)c3)cc2)C(=O)C1(C)C [Compound B1] | 500 to 2000 nM | ≥ 48 µL/min/mg | – | 12 to 48 µL/min/mg |
| CN1C(=O)N(Cc2ccc(C(C)(C)c3cc(Cl)c(OCCCl)c(Cl)c3)cc2)C(=O)C1(C)C [Compound B2, 3-(4-(2-(3,5-Dichloro-4-(2-chloroethoxy)phenyl)propan-2-yl)benzyl)-1,5,5-trimethylimidazolidine-2,4-dione] | < 500 nM | ≥ 48 µL/min/mg | – | ≥ 48 µL/min/mg |
| CC(C)(c1ccc(CN2C(=O)N(S(C)(=O)=O)C(C)(C)C2=O)cc1)c1cc(Cl)c(OCCCl)c(Cl)c1 [Compound B3, 3-(4-(2-(3,5-Dichloro-4-(2-chloroethoxy)phenyl)propan-2-yl)benzyl)-5,5-dimethyl-1-(methylsulfonyl)imidazolidine-2,4-dione] | 500 to 2000 nM | < 12 µL/min/mg | – | < 12 µL/min/mg |
| CC(C)(c1ccc(N2C(=O)N(S(C)(=O)=O)C(C)(C)C2=O)cc1)c1cc(Cl)c(OCCCl)c(Cl)c1 [Compound B7] | > 2000 nM | < 12 µL/min/mg | – | < 12 µL/min/mg |
| Cc1cc(C(C)(C)c2ccc(CN3C(=O)N(S(C)(=O)=O)C(C)(C)C3=O)c(C(N)=O)c2)cc(Cl)c1OCCCl [Compound B9] | < 500 nM | 12 to 48 µL/min/mg | – | 12 to 48 µL/min/mg |
| CC(C)(c1cc(Cl)c(OCCCl)c(Cl)c1)c1ccc(N2C(=O)N(S(C)(=O)=O)C(C)(C)C2=O)c(C#N)c1 [Compound B10] | > 2000 nM | 12 to 48 µL/min/mg | – | < 12 µL/min/mg |
